Laboratory results as given in patent EP0961591B1, “METHOD TO ENHANCE TISSUE AC[…] RADIOLABELED COMPOUNDS” (BOARD OF SUPERVISORS OF LOUISIANA STATE UNIVERSITY AND …, priority 1997, dated 1999).
“And” between values parts separate entries of the source, which are not always exact repeats. Equal values may be shown once.

How the values were obtained:
DNA of SKNSH cells = experiment: Binding to nuclear DNA (DNA extraction, gamma counting); format: cell-based, human; conditions: for Radioligand (CPM ± SD), Non-Decay Corrected: 100 µg DNA, SKNSH (SST-2 negative); for % Specifically Bound / CPM Specifically Bound (Difference), Non-Decay Corrected / Radioligand + Unlabeled Ligand (CPM ± SD), Non-Decay Corrected: SKNSH DNA; for Radioligand + Unlabeled Ligand (CPM ± SD), Non-Decay Corrected: + octreotide acetate
Experimental: (§1) Cells were removed from the culture surface using a sterile rubber policeman. The suspended cells were washed three times in cold Dulbecco's phosphate buffered saline and processed through a DNA extraction procedure according to the vendor's directions (GenomicPrep® cells and Tissue DNA Isolation Kit, Pharmacia Biotech, Piscataway, NJ). The cells were incubated in the Cell Lysis Solution of the DNA isolation kit at 37°C for 10 minutes. Next, 3 µl of the Rnase Solution was added to the cell lysate, followed by thorough mixing and incubation at 37°C for 1 hour. The samples were cooled to room temperature, and 200 µl of the Protein Precipitation Solution were added. Following vortexing, the contents of each tube were centrifuged at 14,000 x g for 1 min, and the DNA pellet was washed with 70% ethanol. Following drying the DNA was hydrated in a DNA Hydration Solution, and the concentration of DNA determined by spectrometry at 260 nm. One hundred microgram (100 µg) quantities of each treatment were transferred to radioactive counting vials, and the amount of radioactivity associated with each was measured in a Beckman 5500 gamma counter. The data, as presented in Table 6, were obtained as counts per minute (cpm). The differences between radioactivity measured in cells incubated solely with radioligand and in cells incubated with both radioligand and unlabeled ligand were statistically analyzed using ANOVA.
(§2) Additionally, the DNA from each flask was divided in half, and 1 mg of DNA from each flask was treated with proteinase-K (Lite Technologies, Gaithersburg, MD) for 1 hour at 37°C. The enzyme-treated DNA was then reprecipitated with ethanol and sodium acetate, washed with cold ethanol, and redissolved in DNA hydration solution. The concentration was determined by spectrophotometry at 260 nm. One hundred microgram (100 µg) of protease-treated DNA and an equal quantity of untreated DNA were transferred to radioactive counting vials and the amount of radioactivity measured in a Beckman 5500 gamma counter, as described above. The data, as presented in Table 7 and Figure 13, were obtained as counts per minute (cpm).

DNA of IMR-32 cells = experiment: as above; format: cell-based, human; conditions: for Radioligand (CPM ± SD), Non-Decay Corrected: 100 µg DNA, IMR-32 (SST-2 positive); for % Specifically Bound / CPM Specifically Bound (Difference), Non-Decay Corrected / Radioligand (CPM ± SD), Decay Corrected Values / SPM Specifically Bound (Difference), Decay Corrected Values / Radioligand + Unlabeled Ligand (CPM ± SD), Decay Corrected Values / Radioligand + Unlabeled Ligand (CPM ± SD), Non-Decay Corrected: IMR-32 DNA; for Radioligand + Unlabeled Ligand (CPM ± SD), Decay Corrected Values / Radioligand + Unlabeled Ligand (CPM ± SD), Non-Decay Corrected: + octreotide acetate
Experimental: as §1, §2

[1] = system: neuroendocrine cancers expressing the somatostatin receptor; experiment: Pilot clinical trial of monthly 180 mCi doses; format: in vivo, human; conditions: ten patients
Experimental: For six months, pilot clinical trials were conducted in ten human patients with progressive metastatic indolent and symptomatic neuroendocrine cancers expressing the somatostatin receptor. […] The first monthly dose was a bolus injection of 180 mCi. The second monthly dose was infusion of 180 mCi over 72 hr. The third monthly dose was infusion of 180 mCi over 24 hr. Thereafter, all monthly doses were infusion of 180 mCi over 24 hr. Clinical benefits (as evidenced by reduced pain, weight gain, reduced malaise, etc.) occurred in 6 of the 10 neuroendocrine (carcinoid/islet cell) patients. Partial radiographic responses (greater than 50% reduction in the product of perpendicular tumor diameters) occurred in 2 patients, and significant tumor necrosis developed in 7 of the 10 neuroendocrine patients. Treatment-related toxicity included 2 Grade III platelet, 1 Grade II WBC, 1 Grade I WBC and 2 Grade I Hb on the NCI (National Cancer Institute) grading scale.

[2] = 100µg DNA, mean of three experiments
[3] = 100µg DNA, proteinase-K, mean of three experiments
[4] = 100µg DNA, single replicate experiments
[5] = NCI grading scale, monthly 180 mCi doses

(^111In-DTPA-D-Phe^1)-octreotide [^111In-pentetreotide]
Radioligand (CPM ± SD), Non-Decay Corrected (DNA of SKNSH cells; 60 minutes): 85 ± 8 CPM | Radioligand (CPM ± SD), Non-Decay Corrected (DNA of SKNSH cells; 4320 minutes): 232 ± 10 CPM | Radioligand (CPM ± SD), Non-Decay Corrected (DNA of SKNSH cells; […]): 87 ± 1 CPM | Binding to Cellular DNA, SKNSH CELLS Untreated (CPM), Mean + S.D. (DNA of SKNSH cells; [2]): 285 ± 56 CPM | Binding to Cellular DNA, SKNSH CELLS Protease Treated (CPM), Mean + S.D. (DNA of SKNSH cells; [3]): 247 ± 149 CPM | Binding to Cellular DNA, SKNSH CELLS Untreated (CPM) (DNA of SKNSH cells; [4]): 316 CPM and 319 CPM | % Specifically Bound (DNA of SKNSH cells; 60 minutes): 0% | CPM Specifically Bound (Difference), Non-Decay Corrected (DNA of SKNSH cells; 60 minutes): -6 CPM | CPM Specifically Bound (Difference), Non-Decay Corrected (DNA of SKNSH cells; 4320 minutes): +58 CPM | Radioligand + Unlabeled Ligand (CPM ± SD), Non-Decay Corrected (DNA of SKNSH cells; 60 minutes): 91 ± 25 CPM | Radioligand + Unlabeled Ligand (CPM ± SD), Non-Decay Corrected (DNA of SKNSH cells; 4320 minutes): 174 ± 41 CPM | % Specifically Bound (DNA of SKNSH cells; […]): 8% | CPM Specifically Bound (Difference), Non-Decay Corrected (DNA of SKNSH cells; […]): +7 CPM | Radioligand (CPM ± SD), Non-Decay Corrected (DNA of IMR-32 cells; 30 mins): 128 ± 28 CPM | Radioligand (CPM ± SD), Non-Decay Corrected (DNA of IMR-32 cells; 60 mins): 152 ± 165 CPM | Radioligand (CPM ± SD), Non-Decay Corrected (DNA of IMR-32 cells; 180 mins): 291 ± 44 CPM | Radioligand (CPM ± SD), Non-Decay Corrected (DNA of IMR-32 cells; 1440 mins): 264 ± 104 CPM | Radioligand (CPM ± SD), Non-Decay Corrected (DNA of IMR-32 cells; 2880 mins): 624 ± 59 CPM | Binding to Cellular DNA, IMR-32 CELLS Untreated (CPM), Mean + S.D. (DNA of IMR-32 cells; [2]): 12,066 ± 2273 CPM | Binding to Cellular DNA, IMR-32 CELLS Protease Treated (CPM) (DNA of IMR-32 cells; 100µg DNA, proteinase-K 1 hour 37°C, single replicate experiments): 10,276 CPM and 9.564 CPM and 12,648 CPM | Binding to Cellular DNA, IMR-32 CELLS Protease Treated (CPM), Mean + S.D. (DNA of IMR-32 cells; [3]): 10,829 ± 1614 CPM | Binding to Cellular DNA, IMR-32 CELLS Untreated (CPM) (DNA of IMR-32 cells; [4]): 11,512 CPM and 10,122 CPM and 14,566 CPM | total bound CPM removed by the protease treatment (DNA of IMR-32 cells; DNA of IMR-32 cells, proteinase-K): 10-13% | % Specifically Bound (DNA of IMR-32 cells; 30 mins): 35% | CPM Specifically Bound (Difference), Non-Decay Corrected (DNA of IMR-32 cells; 30 mins): 45 CPM | Radioligand (CPM ± SD), Decay Corrected Values (DNA of IMR-32 cells; 30 mins): 128 ± 28 CPM | SPM Specifically Bound (Difference), Decay Corrected Values (DNA of IMR-32 cells; 30 mins): 45 CPM | % Specifically Bound (DNA of IMR-32 cells; 60 mins): 45% | CPM Specifically Bound (Difference), Non-Decay Corrected (DNA of IMR-32 cells; 60 mins): 69 CPM | Radioligand (CPM ± SD), Decay Corrected Values (DNA of IMR-32 cells; 60 mins): 157 ± 165 CPM | SPM Specifically Bound (Difference), Decay Corrected Values (DNA of IMR-32 cells; 60 mins): 69 CPM | % Specifically Bound (DNA of IMR-32 cells; 180 mins): 43% | CPM Specifically Bound (Difference), Non-Decay Corrected (DNA of IMR-32 cells; 180 mins): 126 CPM | Radioligand (CPM ± SD), Decay Corrected Values (DNA of IMR-32 cells; 180 mins): 291 ± 44 CPM | SPM Specifically Bound (Difference), Decay Corrected Values (DNA of IMR-32 cells; 180 mins): 126 CPM | % Specifically Bound (DNA of IMR-32 cells; 1440 mins): 67% | CPM Specifically Bound (Difference), Non-Decay Corrected (DNA of IMR-32 cells; 1440 mins): 177 CPM | Radioligand (CPM ± SD), Decay Corrected Values (DNA of IMR-32 cells; 1440 mins): 338 ± 133 CPM | SPM Specifically Bound (Difference), Decay Corrected Values (DNA of IMR-32 cells; 1440 mins): 226 CPM | % Specifically Bound (DNA of IMR-32 cells; 2880 mins): 67% | CPM Specifically Bound (Difference), Non-Decay Corrected (DNA of IMR-32 cells; 2880 mins): 421 CPM | Radioligand (CPM ± SD), Decay Corrected Values (DNA of IMR-32 cells; 2880 mins): 1023 ± 97 CPM | SPM Specifically Bound (Difference), Decay Corrected Values (DNA of IMR-32 cells; 2880 mins): 690 CPM | Radioligand + Unlabeled Ligand (CPM ± SD), Decay Corrected Values (DNA of IMR-32 cells; 30 mins): 83 ± 12 CPM | Radioligand + Unlabeled Ligand (CPM ± SD), Non-Decay Corrected (DNA of IMR-32 cells; 30 mins): 83 ± 12 CPM | Radioligand + Unlabeled Ligand (CPM ± SD), Decay Corrected Values (DNA of IMR-32 cells; 60 mins): 83 ± 1 CPM | Radioligand + Unlabeled Ligand (CPM ± SD), Non-Decay Corrected (DNA of IMR-32 cells; 60 mins): 83 ± 1 CPM | Radioligand + Unlabeled Ligand (CPM ± SD), Decay Corrected Values (DNA of IMR-32 cells; 180 mins): 165 ± 15 CPM | Radioligand + Unlabeled Ligand (CPM ± SD), Non-Decay Corrected (DNA of IMR-32 cells; 180 mins): 165 ± 15 CPM | Radioligand + Unlabeled Ligand (CPM ± SD), Decay Corrected Values (DNA of IMR-32 cells; 1440 mins): 112 ± 8 CPM | Radioligand + Unlabeled Ligand (CPM ± SD), Non-Decay Corrected (DNA of IMR-32 cells; 1440 mins): 87 ± 6 CPM | Radioligand + Unlabeled Ligand (CPM ± SD), Decay Corrected Values (DNA of IMR-32 cells; 2880 mins): 332 ± 33 CPM | Radioligand + Unlabeled Ligand (CPM ± SD), Non-Decay Corrected (DNA of IMR-32 cells; 2880 mins): 203 ± 20 CPM | Treatment-related toxicity: Grade I Hb [1, 5]: 2 | Treatment-related toxicity: Grade I WBC [1, 5]: 1 | Treatment-related toxicity: Grade II WBC [1, 5]: 1 | Treatment-related toxicity: Grade III platelet [1, 5]: 2 | Clinical benefits (reduced pain, weight gain, reduced malaise, etc.) ([1]; monthly 180 mCi doses (bolus, then infusion over 72 hr, then 24 hr)): 6 of the 10 | Partial radiographic responses (greater than 50% reduction in the product of perpendicular tumor diameters) ([1]; monthly 180 mCi doses): 2 patients | significant tumor necrosis ([1]; monthly 180 mCi doses): 7 of the 10
